# Experimental data reported in patent US10375959B2, “Ternary herbicidal combination comprising saflufenacil” (BASF Agro B.V., priority 2015, dated 2019).
# Where “and” joins values, the source holds several entries; their conditions need not be identical. Equal values may be shown once.
# Columns and labels:
# Type in all cases: in vivo
# Abutilon theophrasti = experiment: Greenhouse post-emergence herbicidal activity on ABUTH (velvetleaf), 20 DAT
# Text: (§1) The test plants were first grown to a height of 3 to 20 cm, depending on the plant habit, and only then treated (post-emergence treatment). Here, the herbicidal combinations were suspended, emulsified or dissolved in water as distribution medium and afterwards applied by spraying, using finely distributing nozzles.
# (§2) The herbicides A, B and C were used as commercially available formulations and introduced to the spray liquor with the amount of solvent system used for applying the active compound. In the examples, the solvent used was water.
# (§3) The test period extended over 20 days. During this time, the plants were tended, and their response to the treatments with active compounds was evaluated.
# (§4) The evaluation for the damage caused by the chemical compositions was carried out using a scale from 0 to 100%, compared to the untreated control plants. Here, 0 means no damage and 100 means complete destruction of the plants.
# (§5) The plants used in the greenhouse experiments belonged to the following species:
# (§6) The value E, which is to be expected if the activity of the individual compounds is just additive, was calculated using the method of S. R. Colby (1967) “Calculating synergistic and antagonistic responses of herbicide combinations”, Weeds 15, p. 22 ff. For two component mixtures the value E was calculated by the following formula E=X+Y−(X·Y/100)
# (§7) where X=effect in percent using a mixture of herbicides A and B at application rates a and b, respectively; • Y=effect in percent using herbicide C at an application rate c; • E=expected effect (in %) of A+B+C at application rates a+b+c.
# (§8) If the value observed in this manner is higher than the value E calculated according to Colby, a synergistic effect is present.
# (§9) Tables 1 to 41 relate to the herbicidal activities of the binary mixture of herbicides A and B, of herbicide C individually and of their combinations in post-emergence applications assessed 20 days after treatment (20 DAT).
# Brachiaria platyphylla = experiment: Greenhouse post-emergence herbicidal activity on BRAPP (broadleaf signalgrass), 20 DAT
# Text: as §1, §2, §3, §4, §5, §6, §7, §8, §9
# Digitaria sanguinalis = experiment: Greenhouse post-emergence herbicidal activity on DIGSA (large crabgrass), 20 DAT; details: for % activity 20 DAT: DIGSA
# Text: as §1, §2, §3, §4, §5, §6, §7, §8, §9
# Solarium nigrum = experiment: Greenhouse post-emergence herbicidal activity on SOLNI (black nightshade), 20 DAT
# Text: as §1, §2
# The test period extended over 20 days. During this time, the plants were tended, and their response to the treatments with active compounds was evaluated. […]
# The value E, which is to be expected if the activity of the individual compounds is just additive, was calculated using the method of S. R. Colby (1967) “Calculating synergistic and antagonistic responses of herbicide combinations”, Weeds 15, p. […] For two component mixtures the value E was calculated by the following formula E=X+Y−(X·Y/100) […]
# as §8, §9
# Setaria viridis = experiment: Greenhouse post-emergence herbicidal activity on SETVI (green foxtail), 20 DAT
# Text: as §1, §2, §3, §4, §5, §6, §7, §8, §9
# Avena fatua = experiment: Greenhouse post-emergence herbicidal activity on AVEFA (wild oat), 20 DAT
# Text: as §1, §2, §3, §4, §5, §6, §7, §8, §9
# Echinochloa crus-galli = experiment: Greenhouse post-emergence herbicidal activity on ECHCG (barnyardgrass), 20 DAT
# Text: as §1, §2, §3, §4, §5, §6, §7, §8, §9
# Amaranthus retroflexus = experiment: Greenhouse post-emergence herbicidal activity on AMARE (pig weed), 20 DAT
# Text: as §1, §2, §3, §4, §5, §6, §7, §8, §9
# Brachiaria decumbens = experiment: Greenhouse post-emergence herbicidal activity on BRADC (Surinam grass), 20 DAT
# Text: as §1, §2, §3, §4, §5, §6, §7, §8, §9
smiles,measurement,setting,value
CS(=O)(=O)c1cc(C(F)(F)F)ccc1C(=O)c1cnoc1C1CC1 [isoxaflutole],inhibition at 0.5 g/ha,"Abutilon theophrasti; Abutilon theophrasti, 480 h, ABUTH, 0.5 g ai/ha, 20 DAT, Table 36, read-out: % activity 20 DAT, solo C application",50%
same,pest or weed control at 1 g/ha,"Abutilon theophrasti; Abutilon theophrasti, 480 h, ABUTH, C 1.0 g ai/ha",85%
same,% activity 20 DAT,Brachiaria platyphylla; C 2.0 g ai/ha,40%
same,% activity 20 DAT,Digitaria sanguinalis; C 1.0 g ai/ha,25%
same,% activity 20 DAT,Solarium nigrum; C 0.5 g ai/ha,70%
C#CCN1C(=O)COc2cc(F)c(N3C(=O)C4=C(CCCC4)C3=O)cc21 [flumioxazin],% activity 20 DAT,Setaria viridis; C 0.5 g ai/ha,40%
CCC(CC)Nc1c([N+](=O)[O-])cc(C)c(C)c1[N+](=O)[O-] [pendimethalin],pest or weed control at 37.5 g/ha,"Abutilon theophrasti; Abutilon theophrasti, 480 h, ABUTH, C 37.5 g ai/ha",0%
same,% activity 20 DAT,Avena fatua; C 150.0 g ai/ha,0%
same,% activity 20 DAT,Echinochloa crus-galli; C 75.0 g ai/ha,0%
same,% activity 20 DAT,Echinochloa crus-galli; C 150.0 g ai/ha,0%
CS(=O)(=O)c1ccc(C(=O)C2C(=O)CCCC2=O)c([N+](=O)[O-])c1 [mesotrione],inhibition at 0.625 g/ha,"Abutilon theophrasti; Abutilon theophrasti, 480 h, ABUTH, 0.625 g ai/ha, 20 DAT, read-out: % activity 20 DAT, solo C application",75%
same,% activity,"Amaranthus retroflexus; AMARE, 20 DAT, C 0.625",0%
same,% activity,"Brachiaria platyphylla; 20 DAT, C 5.0",35%
same,inhibition at 5 g/ha,"Brachiaria platyphylla; Urochloa platyphylla, 480 h, 5.0 g ai/ha, 20 DAT, read-out: % activity 20 DAT, solo C application",40%
same,% activity 20 DAT,Digitaria sanguinalis; C 2.5 g ai/ha,80%
CCSC(C)CC1CC(=O)C(/C(CC)=N/OC/C=C/Cl)=C(O)C1 (centres unmarked) [clethodim],pest or weed control at 0.75 g/ha,"Abutilon theophrasti; Abutilon theophrasti, 480 h, read-out: % activity 20 DAT",5%
same,inhibition at 0.75 g/ha,"Abutilon theophrasti; Abutilon theophrasti, 480 h, read-out: % activity 20 DAT, solo C application",5%
same,inhibition at 0.75 g/ha,"Amaranthus retroflexus; Amaranthus retroflexus, 480 h, read-out: % activity 20 DAT, solo C application",20%
same,% activity 20 DAT,Avena fatua; C 0.75 g ai/ha,20%
same,inhibition at 0.75 g/ha,"Digitaria sanguinalis; Digitaria sanguinalis, 480 h, read-out: % activity 20 DAT, solo C application",0%
CCNc1nc(Cl)nc(NC(C)C)n1 [atrazine],inhibition at 12.5 g/ha,"Abutilon theophrasti; Abutilon theophrasti, 480 h, ABUTH, 12.5 g ai/ha, 20 DAT, read-out: % activity 20 DAT, solo C application",25%
same,% activity 20 DAT,Avena fatua; C 12.5 g ai/ha,0%
same,% activity 20 DAT,Brachiaria platyphylla; C 12.5 g ai/ha,0%
same,inhibition at 25 g/ha,"Setaria viridis; Setaria viridis, 480 h, 25.0 g ai/ha, 20 DAT, read-out: % activity 20 DAT, solo C application",25%
CCOc1nc(F)cc2nc(S(=O)(=O)Nc3c(Cl)cccc3Cl)nn12 [diclosulam],"% activity 20 DAT, solo C application","Abutilon theophrasti; ABUTH, 0.125 g ai/ha, 20 DAT",10%
same,"% activity 20 DAT, solo C application","Brachiaria platyphylla; 1.0 g ai/ha, 20 DAT",45%
same,% activity 20 DAT,Digitaria sanguinalis; C 0.5 g ai/ha,25%
same,% activity 20 DAT,Echinochloa crus-galli; C 1.0 g ai/ha,20%
same,% activity 20 DAT,Solarium nigrum; C 0.125 g ai/ha,0%
Cc1c(C(=O)c2cnn(C)c2O)ccc(S(C)(=O)=O)c1C1=NOCC1 [topramezone],"% activity 20 DAT, solo C application","Abutilon theophrasti; ABUTH, 0.25 g ai/ha, 20 DAT",10%
same,% activity 20 DAT,"Abutilon theophrasti; ABUTH, C 0.25 g ai/ha",10% and 0%
same,"% activity 20 DAT, solo C application","Amaranthus retroflexus; AMARE, 0.25 g ai/ha, 20 DAT",40%
same,% activity 20 DAT,"Amaranthus retroflexus; AMARE, C 0.25 g ai/ha",40%
same,"% activity 20 DAT, solo C application","Avena fatua; 0.25 g ai/ha, 20 DAT",0%
same,% activity 20 DAT,Brachiaria decumbens; C 0.25 g ai/ha,0%
same,% activity 20 DAT,Brachiaria decumbens; C 0.5 g ai/ha,0%
same,"% activity 20 DAT, solo C application","Echinochloa crus-galli; 0.25 g ai/ha, 20 DAT",25%
same,% activity 20 DAT,Echinochloa crus-galli; C 0.25 g ai/ha,25% and 20%
same,"% activity 20 DAT, solo C application","Setaria viridis; 0.25 g ai/ha, 20 DAT",0%
same,% activity 20 DAT,Setaria viridis; C 0.25 g ai/ha,0%
same,% activity 20 DAT,Setaria viridis; C 0.5 g ai/ha,0%
